Test results from patent US20060229255A1, “Identification of n-alkylglycine trimers for induction of apoptosis” (priority 2003, published 2006).
Where two headings read alike, the source gives them in different places.

Key:
Assay type in all cases: cell-based, human
T98 g cells = assay: Cell cycle DNA analysis in synchronized cells; conditions: for Cells retained in G1: 19 h after serum re-addition, 100 μM
Method: Experimentally this finding was substantiated analysing the compounds in a cellular model with synchronized cells. T98 g cells were arrested in G1 phase (82%) by serum starvation in MCDB 105 medium after 72 h. Upon 10% serum re-addition, cells were allowed to re-enter into the cell cycle. More than 50% of the cells were in the S-phase, and only 20% remained in G1 after 19 h of FCS introduction. Addition of N10-13-10C or N13-13-10C to the cultures at the moment of serum addition restrained S-phase entry (FIG. 7. A). Around 40% of the cells were retained in G1. In conclusions both N10-13-10C and N13-13-10C were able to induce a G1 arrest either in asynchronous or in synchronized cell cultures, as determined by cell cycle DNA analysis. In comparison, Olomucine which is a cdk2 inhibitor, retained 80% of the cells in G1. The topoisomerase II inhibitor etoposide treated cells were arrested in S phase of the cell cycle (85% of the cell population).
DNA analysis. Floating and adherent cells treated with the compounds were collected by trypsinization and washed twice with PBS. The cells were permeabilized overnight at −20° C. with ice-cold ethanol 70%. The cells were washed in PBS, adjusted at 0.5×10^6 cells/ml and incubated with 20 μg/ml Propidium Iodide and 2 μl/ml RNase DNase-free for 30 min at 30° C. Cells were maintained overnight at 4° C. and then analysed by flow cytometry. Flow cytometric experiments were carried out using an Epics XL flow cytometer (Coulter Corporation, Hialeah, Fla.). The instrumet was set up with the standard configuration: excitation of the sample was done using an standard 488 nm air-cooled argon-ion laser at 15 mW power. Forward scatter (FSC), side scatter (SSC) and red (620 nm) fluorescence for PI were adquired. Optical alignement was based on optimized signal from […] fluorescent beads (Immunocheck, Epics Division). Time was used as a control of the stability of the instrument. Red fluorescence was projected on a 1024 monoparametrical histogram. Aggregates were excluded gating single cells by their area vs. peak fluorescence signal. DNA analysis (Ploidy analysis) on single fluorescence histograms was done using Multicycle software (Phoenix Flow Systems, San Diego, Calif.).
(§1) FIG. 7. […] (A) T98 g cells were synchronized and reinitiated for 19 h with FCS alone or in combination with N10-13-10C (100 μM), N13-13-10C (100 μM), Olomucine (100 μM), etoposide (5 μM) or Taxol (30 nM). Cell cycle profile was assessed by propidium iodide DNA staining and analyzed by flow cytometry. The fraction of cells with G1, S, G2/M DNA content are shown as % of total cell population. (B. and C.) Synchronized T98 g cells were reinitiated with FCS alone or in combination with serial dilutions of N4-13-10C, N5-13-10C, N10-13-10C, N13-13-10C, Olomucine or etoposide for 19 h and labeled with BrdU during the last 2 h. BrdU incorporation was assessed by ELISA using anti-BrdU antibodies. An arbitrary value of 100% was assigned to the densiometric rate of DNA synthesis by untreated cultures and all other values are depicted relative to that reference. The values are means of three (n=3) replicates.

T98g glioblastoma cells = assay: BrdU incorporation assay (DNA synthesis); conditions: synchronized T98 g, 17 h + 2 h BrdU, read-out: IC50 BrdU incorporation (DNA synthesis inhibition)
Method: To confirm the G1 arrest of the cell cycle, we analyzed the DNA synthesis by an BrdU incorporation assay. Serial dilutions of the compounds N4-13-10C, N5-13-10C, N10-13-10C, N13-13-10C, etoposide or olomucine were assayed on synchronized T98 g cells as described in FIG. 7. A. Arrested cells were induced to cell cycle re-entry by re-addition of serum alone or with test compounds for 17 h, followed by 2 h in combination with 10 μM BrdU.
BrdU assay. T98g glioblastoma cells at 5000 cells/well in microtiter plates were arrested in G1-phase for 72 h by serum deprivation in MCDB 105 medium. By serum (10%) readdition, cells were treated with serial dilutions of the compounds for 17 h, and followed in combination 10 μM BrdU for […]. BrdU incorporation, i.e. DNA synthesis, was quantified with Cell Proliferation ELISA system, vs. 2 (AmershamPharmacia biotech) as described by the manufacturer.
as §1

Bcl-xL = assay: Western blot of Bcl-xL phosphorylation; conditions: HT29 cells, 3, 6 and 24 h
Method: Western blotting. Floating and adherent cells were harvested and pellets were resuspended in RIPA buffer (50 mM Tris/HCl 7.4, 250 mM NaCl, 0,5% Igepal CA630, 5 mM EDTA, 1 mM PMSF, 10 μg/ml leupeptin, 50 mM NaF, 0.1 mM Na3VO4) or Deoxycholate buffer (10 mM phosphate buffer 7.4, […] NaCl, 0.5% Deoxycholate, 1% Igepal, 0.1% SDS, 1 mM PMSF). Protein concentration was determined with BCA Protein Assay Kit (Pierce) for RIPA extracts or Bradford assay (BioRad) for Deoxycholate extracts. Total protein (20-30 μg/lane) were separated by SDS-PAGE, transferred to PVDF membranes (Gellman), and probed with antibodies against Bcl-xL (Transduction); Bax (Santa Cruz); JNK (Santa Cruz); phospho-JNK (Cell Signaling); pRb (Pharmingen); pRb-phospho Ser780 (Cell Signalling); p130 (Santa Cruz); p107 (Santa Cruz); Cdk2 (Santa Cruz); p27^Kip1 (Santa Cruz); p21^Cip1 (Santa Cruz); actin (Sigma); or tubulin (ICN) and developed with ECL system (AmershamPharmacia biotech)
FIG. 6. (A) JNK is activated after N13-13-10C treatment. HT29 cells were treated for 1, 3, 6 and 24 h with N13-13-10C (35 μM), harvested and immunoblotted to assess activation of SAP/JNK MAP kinase. Western blot was first probed with the JNK-phosphor specific antibody, was stripped and reprobed with the pan-JNK antibody and actin to normalize total protein level. […]

**Q.** Which “Cells retained in G1” value (T98 g cells) does the source give for `Cn1cnc2c(NCc3ccccc3)nc(NCCO)nc21` [Olomucine] here?
**A.** Its value is 80%.

**Q.** And the “Cells retained in G1” value (T98 g cells; listed as olomucine)?
**A.** The value was 82%.

**Q.** What about the IC50 (T98g glioblastoma cells) of the same compound?
**A.** Its IC50 is 50 µM.

**Q.** Which results are given for `CC(=O)O[C@H]1C(=O)[C@@]2(C)[C@H]([C@H](OC(=O)c3ccccc3)[C@]3(O)C[C@H](OC(=O)[C@H](O)[C@@H](NC(=O)c4ccccc4)c4ccccc4)C(C)=C1C3(C)C)[C@]1(OC(C)=O)CO[C@@H]1C[C@@H]2O` [Taxol, reference compound]?
**A.** Effect on cell cycle profile (T98 g cells; 19 h of treatment, Taxol 30 nM): does not effect cell cycle profile; Bcl-xL phosphorylation (slower migrating band) (Bcl-xL): phosphorylated bcl-xL

**Q.** `COc1cc([C@@H]2c3cc4c(cc3[C@@H](O[C@@H]3O[C@@H]5CO[C@@H](C)O[C@H]5[C@H](O)[C@H]3O)[C@H]3COC(=O)[C@H]23)OCO4)cc(OC)c1O` [etoposide, reference compound] was tested. Which “Cells arrested in S phase” value (T98 g cells; 19 h, etoposide 5 μM) did it give?
**A.** The value was 85%.

**Q.** And the IC50 (T98g glioblastoma cells; Homo sapiens, T98G)?
**A.** The IC50 was 200 µM.
